Assay results published in US20200121801A1, “DRUG DELIVERY CONJUGATES CONTAINING UNNATURAL AMINO ACIDS AND METHODS FOR USING” (priority 2012, published 2020).
“Also recorded” adds a separate entry of the source. Marks after values point to notes of the source that are not given here.

Tests used:
[1] = tested on: MDA-MB-231 tumors; experiment: TNBC tumor assay, s.c. MDA-MB-231 xenografts; format: in vivo, nu/nu mice; details: 2 μmol/kg i.v. TIW, 2 weeks
Text: METHOD. TNBC Tumor Assay. Triple negative breast cancer (TNBC) is a subtype characterized by lack of gene expression for estrogen, progesterone and Her2/neu. TNBC is difficult to treat, and the resulting death rate in patients is reportedly disproportionately higher than for any other subtype of breast cancer. A TNBC xenograft model was generated in an analogous way to the KB and M109 models described herein by implanting MDA-MB-231 breast cancer cells in nu/nu mice. Dosing is initiated when the s.c. tumors have an average volume between 110-150 (generally 130) mm^3 (t0), typically 17 days post tumor inoculation (PTI).
EXAMPLE. […] Without being bound by theory, it is believed herein that the test animals were cured of the triple negative breast cancer.

[2] = tested on: AN3CA (FR-); experiment: In vitro activity, 3H-thymidine incorporation, AN3CA; format: cell-based, Human; details: evaluated from 0.1-100 nM
Procedure: (§1) METHOD. In vitro activity against various cancer cell lines. IC50 values are generated for various cell lines. Cells are heavily seeded in 24-well Falcon plates and allowed to form nearly confluent monolayers overnight. Thirty minutes prior to the addition of the test compound, spent medium is aspirated from all wells and replaced with fresh folate-deficient RPMI medium (FFRPMI). A subset of wells are designated to receive media containing 100 μM folic acid. The cells in the designated wells are used to determine the targeting specificity. Without being bound by theory it is believed herein that the cytotoxic activity produced by test compounds in the presence of excess folic acid, i.e. where there is competition for FR binding, corresponds to the portion of the total activity that is unrelated to FR-specific delivery. Following one rinse with 1 mL of fresh FFRPMI containing 10% heat-inactivated fetal calf serum, each well receives 1 mL of medium containing increasing concentrations of test compound (4 wells per sample) in the presence or absence of 100 μM free folic acid as indicated. […] A 450 μL aliquot of each solubilized sample is transferred to a scintillation vial containing 3 mL of Ecolume scintillation cocktail and then counted in a liquid scintillation counter. Final results are expressed as the percentage of ^3H-thymidine incorporation relative to untreated controls.

[3] = tested on: NC1/ADR-RES-Cl2 (FR+); experiment: In vitro activity, 3H-thymidine incorporation, NC1/ADR-RES-Cl2; format: cell-based, Human
Procedure: as §1

[4] = tested on: MDA-MB-231 (FR+); experiment: In vitro activity, 3H-thymidine incorporation, MDA-MB-231; format: cell-based, Human
Procedure: as §1

[5] = tested on: KB cells (FR+); format: cell-based, Human
Procedure: METHOD. Inhibition of Cellular DNA Synthesis. The compounds described herein are evaluated using an in vitro cytotoxicity assay that predicts the ability of the drug to inhibit the growth of folate receptor-positive cells, such as KB cells, RAW264.7 macrophages, and the like. It is to be understood that the choice of cell type can made on the basis of the susceptibility of those selected cells to the drug that forms the conjugate. The test compounds are comprised of folate linked to a respective chemotherapeutic drug, as prepared according to the processes described herein. The test cells are exposed to varying concentrations of folate-drug conjugate, and also in the absence or presence of at least a 100-fold excess of folic acid to assess activity as being specific to folate receptor mediation.
EXAMPLE. Conjugates of cytotoxic drugs described herein are active against KB cells. The activity is mediated by the folate receptor as indicated by competition experiments using co-administered folic acid. KB cells are exposed for up to 7 h at 37° C. to the indicated concentrations of folate-drug conjugate in the absence or presence of at least a 100-fold excess of folic acid. The cells are then rinsed once with fresh culture medium and incubated in fresh culture medium for 72 hours at 37° C. Cell viability was assessed using a ^3H-thymidine incorporation assay.
METHOD. In vitro activity against various cancer cell lines. IC50 values are generated for various cell lines. Cells are heavily seeded in 24-well Falcon plates and allowed to form nearly confluent monolayers overnight. Thirty minutes prior to the addition of the test compound, spent medium is aspirated from all wells and replaced with fresh folate-deficient RPMI medium (FFRPMI). A subset of wells are designated to receive media containing 100 μM folic acid. The cells in the designated wells are used to determine the targeting specificity. Without being bound by theory it is believed herein that the cytotoxic activity produced by test compounds in the presence of excess folic acid, i.e. where there is competition for FR binding, corresponds to the portion of the total activity that is unrelated to FR-specific delivery. Following one rinse with 1 mL of fresh FFRPMI containing 10% heat-inactivated fetal calf serum, each well receives 1 mL of medium containing increasing concentrations of test compound (4 wells per sample) in the presence or absence of 100 μM free folic acid as indicated. Treated cells are pulsed for 2 h at 37° C., rinsed 4 times with 0.5 mL of media, and then chased in 1 mL of fresh medium up to 70 h. Spent medium is aspirated from all wells and replaced with fresh medium containing 5 μCi/mL ^3H-thymidine. Following a further 2 h 37° C. incubation, cells are washed 3 times with 0.5 mL of PBS and then treated with 0.5 mL of ice-cold 5% trichloroacetic acid per well. After 15 min, the trichloroacetic acid is aspirated and the cell material solubilized by the addition of 0.5 mL of 0.25 N sodium hydroxide for 15 min. A 450 μL aliquot of each solubilized sample is transferred to a scintillation vial containing 3 mL of Ecolume scintillation cocktail and then counted in a liquid scintillation counter. Final results are expressed as the percentage of ^3H-thymidine incorporation relative to untreated controls.

[6] = tested on: KB tumors; experiment: Inhibition of tumor growth, s.c. KB tumors in nu/nu mice; format: in vivo; set-up: key to In vivo activity (e): CR = complete response, where tumor volume, as defined herein, during the observation period was zero for all test animals in the group; details: for CR: 2 weeks
Procedure: METHOD. Inhibition of Tumor Growth in Mice. […] For tumor cell inoculation, 1×10^6 M109 cells (a syngeneic lung carcinoma) in Balb/c strain, or 1×10^6 KB cells in nu/nu strain, in 100 μL are injected in the subcutis of the dorsal medial area (right axilla).
METHOD. Toxicity as Measured by Weight Loss. The percentage weight change of the test animals is determined on selected days post-tumor inoculation (PTI), and during dosing. The results are graphed.

[7] = tested on: A549 (FR-); experiment: In vitro activity, 3H-thymidine incorporation, A549; format: cell-based, Human; details: evaluated from 0.1-100 nM
Procedure: as §1

[8] = target: T1, folate receptors (FRs) on KB cells (Homo sapiens, UniProt P15328); experiment: Relative affinity assay (3H-folic acid competition) on KB cells; format: binding; details: folic acid = 1; in 10% serum/FDRPMI
T1 construct: FR-positive KB cells are heavily seeded into 24-well cell culture plates; endogenous in cells; host or cells: KB cells
T1 sequence (P15328 25-234): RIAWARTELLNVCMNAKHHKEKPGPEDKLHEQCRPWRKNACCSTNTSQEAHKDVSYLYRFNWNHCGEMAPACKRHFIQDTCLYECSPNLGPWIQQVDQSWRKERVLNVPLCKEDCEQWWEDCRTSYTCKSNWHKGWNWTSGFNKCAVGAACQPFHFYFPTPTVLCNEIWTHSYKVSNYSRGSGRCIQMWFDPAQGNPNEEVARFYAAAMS
Procedure: METHOD. Relative Affinity Assay. The affinity for folate receptors (FRs) relative to folate is determined according to a previously described method (Westerhof, G. R., J. H. Schornagel, et al. (1995) Mol. Pharm. 48: 459-471) with slight modification. Briefly, FR-positive KB cells are heavily seeded into 24-well cell culture plates and allowed to adhere to the plastic for 18 h. Spent incubation media is replaced in designated wells with folate-free RPMI (FFRPMI) supplemented with 100 nM ^3H-folic acid in the absence and presence of increasing concentrations of test article or folic acid. Cells are incubated for 60 min at 37° C. and then rinsed 3 times with PBS, pH 7.4. Five hundred microliters of 1% SDS in PBS, pH 7.4, is added per well. Cell lysates are then collected and added to individual vials containing 5 mL of scintillation cocktail, and then counted for radioactivity. Negative control tubes contain only the ^3H-folic acid in FFRPMI (no competitor). Positive control tubes contain a final concentration of 1 mM folic acid, and CPMs measured in these samples (representing non-specific binding of label) are subtracted from all samples.

[9] = tested on: KB-CR2000 (cisplatin resistant) tumors; experiment: Cisplatin-resistant KB-CR2000 tumor model; format: in vivo, mice
[10] = Maximum tolerated dose (MTD); set-up: species or system Sprague-Dawley rats; details: rat, in vivo
Procedure: EXAMPLE. Maximum tolerated dose (MTD). […] Test compounds are administered by i.v., BIW, 2 wks in female Sprague-Dawley rats. Comparator compound EC0531 has a MTD of 0.33 μmol/kg, while EC1456 has a MTD of at least 0.51 μmol/kg, a […], as shown in FIG. 20. Histopathologic changes were not observed with doses of EC1456 at or below the MTD.

[11] = tested on: H23 (FR-); experiment: In vitro activity, 3H-thymidine incorporation, H23; format: cell-based, Human; details: evaluated from 0.1-100 nM
Procedure: as §1

[12] = tested on: IGROV1 (FR+); experiment: In vitro activity, 3H-thymidine incorporation, IGROV1; format: cell-based, Human
Procedure: as §1

[13] = tested on: HepG2 (FR-); experiment: In vitro activity, 3H-thymidine incorporation, HepG2; format: cell-based, Human; details: evaluated from 0.1-100 nM
Procedure: as §1

## CCCC(=O)OCN(C(=O)[C@@H](NC(=O)[C@H]1CCCCN1C)C(C)CC)C(C[C@@H](OC(C)=O)c1nc(C(=O)N[C@@H](Cc2ccc(O)cc2)C[C@H](C)C(=O)NNC(=O)OCCSSC[C@@H](NC(=O)[C@H](CCC(=O)NC[C@H](O)[C@@H](O)[C@H](O)[C@H](O)CO)NC(=O)[C@@H](CCC(=O)O)NC(=O)[C@H](CCC(=O)NC[C@H](O)[C@@H](O)[C@H](O)[C@H](O)CO)NC(=O)[C@@H](CCC(=O)O)NC(=O)[C@H](CCC(=O)NC[C@H](O)[C@@H](O)[C@H](O)[C@H](O)CO)NC(=O)CC[C@@H](NC(=O)c2ccc(NCc3cnc4nc(N)[nH]c(=O)c4n3)cc2)C(=O)O)C(=O)O)cs1)C(C)C (stereo partly drawn) [EC1456]
[1]
  weight loss / gross whole animal toxicity: did not cause gross whole animal toxicity; also recorded: not accompanied by significant weight loss
[1]; observation nearly 135 days
  complete responses (test animals): 4 of 5
[2]
  Activity (IC50): Inactive
[3]
  Competable up to 100 nM: Yes
[4]
  Competable up to 100 nM: Yes
[5]
  improvement in specificity compared to comparator EC0531: 4 fold
[5]; IC50 competed group vs non-competed group
  In vitro specificity (fold) (d): 944 fold
[5]; IC50 competed vs non-competed group
  specificity for the folate receptor by folic acid competition: ca. 1000 fold
[5]; KB
  Competable up to 100 nM: Yes
[6]; 0.5 μmol/kg, TIW, 3 weeks, untreated control 2.4%
  Toxicity: Avg. Weight Loss: <5%*
[6]; 1 μmol/kg TIW, 2 wk
  whole animal toxicity (body weight): did not result in any observable whole animal toxicity; also recorded: does not show any evidence of whole animal toxicity
[6]; 1 μmol/kg i.v. TIW, 2 wk
  complete response (test animals): 4/4
[6]; 1.0 μmol/kg, TIW
  CR: 60%
[6]; 2.0 μmol/kg, TIW
  CR: 100%
[6]; EC0923 50 or 100 μmol/kg co-dosed
  activity competable with excess EC0923: competable
[6]; subcutaneous KB tumor in nu/nu mice
  In vivo activity (e): CR
[7]
  Activity (IC50): Inactive (a)
[8]
  Relative Affinity (a) compared to folic acid: 0.27
[9]; 2 μmol/kg i.v. TIW, 2 weeks
  CRs (test animals): 5/5
  regrowth of the tumor (test animals): 1/5
  weight loss / host animal toxicity: did not exhibit significant host animal toxicity; also recorded: did not cause any weight loss
[9]; nearly 70 day observation period
  test animals cured (no regrowth): 4/5
[10]
  improvement in MTD over EC0531: 65%
[10]; iv, BIW, 2 wks, female Sprague-Dawley rats
  MTD at 2 weeks: ≥ 0.51 µmol/kg
[11]
  Activity (IC50): Inactive
[12]
  Competable up to 100 nM: Yes
[13]
  Activity (IC50): Inactive
